Measurements taken from article PMC11273618, “Multianalytical Approach to Understand Polyphenol-Mal d 1 Interactions to Predict Their Impact on the Allergenic Potential of Apples” (Journal of Agricultural and Food Chemistry, 2024).

How the values were obtained:
[1] = target: T1, r-Mal d 1.01 (recombinant Mal d 1.0108) (Malus domestica, UniProt Q9SYW3); experiment: 1H-15N-HSQC NMR chemical shift perturbation; assay type: binding; conditions: 50 mM phosphate pH 7, 10% D2O, 25 °C; 100 μM 15N-protein, 0.1-2 mM ligand; no specific site, scattered over surface
T1 construct: gene MALD1; 15N-labelled in M9 medium for HSQC NMR; one cysteine (Cys107)
T1 sequence (Q9SYW3 1-159): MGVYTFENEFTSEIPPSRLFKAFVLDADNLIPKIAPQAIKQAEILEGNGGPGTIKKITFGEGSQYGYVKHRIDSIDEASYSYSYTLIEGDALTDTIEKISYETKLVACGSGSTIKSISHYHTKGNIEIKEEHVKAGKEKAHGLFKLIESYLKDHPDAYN

[2] = target: T1, r-Mal d 1.01 (recombinant Mal d 1.0108); experiment: isothermal titration calorimetry, independent model; conditions: 0.1 M sodium phosphate pH 7, 25 °C; 0.2 mM protein, 4 mM ligand injected; stoichiometry fixed at n = 1; weak nonspecific surface binding; unreliable
[3] = target: T1, r-Mal d 1.01 (recombinant Mal d 1.0108); experiment: untargeted bottom-up LC-MS of tryptic peptides; assay type: binding; conditions: covalent; Michael addition at Cys107 (peptide LVACGSGSTIK) via o-quinone formed by autoxidation; excess ligand in water, 20 min, room temperature

KD [2]	SMILES	1H-15N-HSQC NMR chemical shift perturbation [1]	% modification of Cys107 peptide [3]
	O=C(/C=C/c1ccc(O)c(O)c1)O[C@@H]1C[C@](O)(C(=O)O)C[C@@H](O)[C@H]1O [CA, chlorogenic acid]	CA showed by far the strongest impact on the protein surface	
500 ± 0 µM	Oc1cc(O)c2c(c1)O[C@H](c1ccc(O)c(O)c1)[C@@H](O)C2 [CAT, (+)-catechin]		
1400 µM	Oc1cc(O)c2c(c1)O[C@H](c1ccc(O)c(O)c1)[C@H](O)C2 [EC, (−)-epicatechin]		~ 30%
1200 ± 200 µM	Oc1cc(O)c2c(c1)O[C@H](c1ccc(O)c(O)c1)[C@H](O)[C@H]2c1c(O)cc(O)c2c1O[C@H](c1ccc(O)c(O)c1)[C@@H](O)C2 [PC B1, procyanidin B1]		
600 ± 0 µM	Oc1cc(O)c2c(c1)O[C@H](c1ccc(O)c(O)c1)[C@H](O)[C@H]2c1c(O)cc(O)c2c1O[C@H](c1ccc(O)c(O)c1)[C@H](O)C2 [PC B2, procyanidin B2]		
